Patent US10520492B2, “Method of screening for candidate compounds for regulating melanogenesis or pigmentation” (CHANEL PARFUMS BEAUTE, priority 2013, dated 2019)
“Also recorded” adds a separate entry of the source.

Assays:
G361 cells = experiment: Melanin content in G361 cells; type: cell-based, human; conditions: for OAG-induced melanin content: OAG-treated G361 cells, recovery with test substance
Experimental: Cells were treated with Di-acyl glycerol (OAG, 20 μg/ml) for 24 h followed by recovery either in the normal medium as described below or Vitamin C (0.1-0.3 mM) for 24 to 48 hrs.
(§1) G361 cells were cultured overnight and allowed to adhere to the surface well after which they were treated with TXC supplemented medium or OAG as described below followed by recovery in the TXC medium at doses indicated in the data figs.
Cells were plated in 96 well plates and allowed to attach well to the surface of the plate for 24 hours followed by transfections and treatments as described above and indicated in the figure legends. Cells were washed with PBS. Potassium hydroxide (KOH-0.85 N, 100 μl) was added to each. The plates were shaken gently in dark for overnight. Absorbance of the pigment was measured at 405 nm. Melanin content was calculated by using standard purified melanin (Sigma).

tyrosinase [1] = experiment: Tyrosinase ELISA (tyrosinase activity assay) in G361 cells; type: cell-based, human
Experimental: Cells (Approximately 10000 cells/well) were plated in 96 well Nunc-Immuno maxisorp plates. At about 70% confluency, cells were transfected with shRNA plasmids (100 ng/well) as described above. After 24 hrs post-transfection, the cells were selected in puromycin-supplemented medium and were then processed for tyrosinase ELISA as described below. Cells were washed with PBS twice and were lysed in RIPA lysis buffer (Santa Cruz Biotechnology). Protein concentrations of the lysates were determined (Pierce BCA Protein Assay kit, Thermo Scientific) and the samples were diluted to 1 ug/ul concentration in coating buffer (0.1 M Sodium bicarbonate, 0.02% Sodium Azide pH-9.6). 5 μg of the protein sample was added to each well in a final volume of 100 μl of the coating buffer. The plates were gently shaken for 10 min and were then securely sealed and left for 2 hrs at room temperature. The solution was discarded and the plates were washed with washing buffer (PBS-0.5% TWEEN® 20, which is polysorbate 20) for 5 min. Blocking buffer (200 ul) was added to each well and the plates were incubated for 2 hours at room temperature followed by washings with the Washing buffer twice (3 min each). Anti-tyrosinase antibody (50 μl, 5 μg/ml in the blocking buffer) was added to each well and the plated were sealed and kept at room temperature for 1-2 hrs followed by washings with the washing buffer (3×10 min). The plates were incubated with the secondary antibody (Alkaline phosphatase, AP-Goat anti Rabbit IgG) for 1 hr and were then washed with the washing buffer for 3-5 times. The 100 μl of the substrate for AP (Nitrophenyl Phosphate, Disodium Salt, PNPP) was added to each well. Plates were again sealed and left for 30 min followed by measuring the absorbance at 405 nm that represented the quantitative estimation of tyrosinase expression.

Hsp60 [2] = experiment: Hsp60 expression in G361 cells; type: cell-based, human; conditions: FIG. 13B, Hydrochloride Salt
mortalin [3] = experiment: Mortalin expression (immunoblotting) in G361 cells; type: cell-based, human
Experimental: as §1
(§2) Cells were grown and treated in 6-well plates. After transfections or drug treatments as described above, the cells were lysed with RIPA lysis buffer. Cell lysate (30 μg) was resolved on SDS-PAGE followed by transfer onto a nitrocellulose membrane (Millipore) using a semidry transfer blotter. Immunoassays were done with anti-mortalin, anti-HSP70 and anti-tyrosinase antibodies. The immunocomplexes formed were visualized with horseradish peroxidase-conjugated anti-rabbit/mouse immunoglobulin G. The bands were detected by LAS 3000 mini (FujiFilm).

tyrosinase [4] = experiment: Western blotting of tyrosinase in G361 cells; type: cell-based, human
Experimental: as §2

mortalin [5] = experiment: Immunostaining of mortalin upon OAG induction; type: cell-based, human; conditions: induction of melanogenesis by OAG, FIG. 5
Experimental: (§3) Cells were cultured and treated on glass coverslips placed in 12-well culture dish. At the end of the treatment as described above, coverslips were washed with cold phosphate-buffered saline (PBS) and the cells were fixed with pre-chilled methanol:acetone (1:1 v/v) mixture for 5-10 min. Fixed cells were washed with PBS, permeabilized with 0.2% TRITON™ X-100 (4-(1,1,3,3-Tetramethylbutyl)phenyl-polyethylene glycol) in PBS for 10 min, and blocked with 2% bovine serum albumin (BSA) in PBS for 20 min. Cells were stained with anti-mortalin, anti-HSP60, anti-tyrosinase and anti-melanosome antibodies. Immunostaining was visualized by secondary staining with Alexa-488 or Alexa-594 conjugated antibodies (Molecular probes). After three to four washings with 0.2% TRITON™ X-100 in PBS (PBST), cells were overlaid with Fluoromount (Difco). The cells were examined with Carl Zeiss microscope with epifluorescence optics.

[6] = system: primary melanocytes from a skin donor; experiment: Melanosome immunostaining in primary melanocytes from donor; type: cell-based, human; conditions: OAG-treated vs control primary melanocytes, FIG. 1A
Experimental: (§4) The human melanoma G361 were bought from Cell Resource Center for Biomedical Research, Tohoku University, Japan and were cultured in DMEM (Dulbecco's Modified Eagle's Medium, Invitrogen) supplemented with 10% fetal bovine serum in a humidified incubator (37° C. and 5% CO2). Human primary melanocytes from the light and dark skin donors were bought from ScienCell Research Laboratories and were cultured in the recommended melanocyte growth medium. Cells were transfected with the expression plasmids coding for either mortalin or HSP60 protein using Fugene (Roche) as per recommended protocol. Typically 3-5 μg of plasmid DNA was used for 6 cms culture dish at 70-80% confluency. Cells were incubated with the plasmids for 48 hrs after which cells were harvested and examined for the expression indicated genes by protocols as described below. For shRNA transfections, Oligofectamine™ Transfection Reagent (Life Technologies™) was used as per manufacturer's instructions. Transfected cells were incubated with medium supplemented with puromycin (1 ug/ml) for 24-48 hrs and were then processed for assays as described below.
(§5) Cells were cultured and treated on glass coverslips placed in 12-well culture dish. […]

[7] = system: human melanoma cells G361; experiment: Melanosome immunostaining in G361 cells; type: cell-based; conditions: OAG-treated vs control G361 cells, FIG. 1B
Experimental: as §4, §5

Hsp60 [8] = experiment: Immunostaining of Hsp60 upon OAG induction; type: cell-based, human; conditions: induction of melanogenesis by OAG, FIG. 4
Experimental: as §3

SMILES | OAG-induced melanin content (G361 cells) | OAG-induced tyrosinase (tyrosinase [1]; OAG-treated G361 cells then Vitamin C, FIG. 3) | endogenous expression of Hsp60 (Hsp60 [2]) | endogenous melanin (G361 cells; OAG-untreated G361 cells) | OAG-induced tyrosinase activity (tyrosinase [1]; OAG-treated G361 cells, TXC at various concentrations, FIG. 12) | OAG-induced expression of Mortalin (mortalin [3]; G361 cells treated with OAG, then recovery in presence of test substance, Hydrochloride Salt) | endogenous expression of Mortalin (mortalin [3]; G361 cells, FIG. 13, Hydrochloride Salt) | endogenous expression of tyrosinase (tyrosinase [4]; G361 cells, FIG. 13A, Hydrochloride Salt) | mortalin level (immunostaining) (mortalin [5]) | melanosome production [6] | melanin content (G361 cells; G361 cells treated with OAG, FIG. 2) | melanosome production [7] | tyrosinase activity (tyrosinase [1]; OAG-treated G361 cells, FIG. 3B) | mortalin expression (mortalin [3]; G361 cells treated with OAG, FIG. 13C) | Hsp60 level (immunostaining) (Hsp60 [8]) | tyrosinase expression (tyrosinase [4]; OAG-treated G361 cells, FIG. 3A)
O=C1O[C@H]([C@@H](O)CO)C(O)=C1O [Vitamin C] | reduction | decrease |  |  |  |  |  |  |  |  |  |  |  |  |  | 
CCCCCCCCCCCCCCCCOC(=O)C1CCC(CN)CC1.Cl (centres unmarked) [TXC, Cetyl Tranexamate Hydrochloride Salt] | reduction |  | Reduction; also recorded: decreases | reduction | reduction | reduction; also recorded: decrease | reduction; also recorded: decreases | Reduction; also recorded: decreases |  |  |  |  |  |  |  | 
CCCCCCCC/C=C\CCCCCCCC(=O)OC[C@H](CO)OC(C)=O [OAG, 1-oleoyl-2-acetyl-sn-glycero] |  |  |  |  |  |  |  |  | upregulation | induced | Increase | induced | increase | Increase | upregulation | increase
